Measurements: ChEMBL document CHEMBL4373693, “Virtual Screening Approach and Investigation of Structure-Activity Relationships To Discover Novel Bacterial Topoisomerase Inhibitors Targeting Gram-Positive and Gram-Negative Pathogens” (J Med Chem, 2019)
In brackets after ≈: the same amount, converted by molar mass.

Experiments:
[1] = Selectivity ratio, ratio of IC50 for human HEK293 cells to MIC for Staphylococcus aureus ATCC 29213; type: toxicity; conditions: read-out: Selectivity Index
[2] = Selectivity ratio, ratio of IC50 for human HepG2 cells to MIC for Staphylococcus aureus ATCC 29213; type: toxicity; conditions: read-out: Selectivity Index
Enterococcus faecalis [3] = test: Antibacterial activity against vancomycin and teicoplanin-resistant Enterococcus faecalis APV 00409 after 16 to 24 hrs by broth microdilution method; type: functional
Enterococcus faecalis [4] = test: Antibacterial activity against vancomycin-sensitive Enterococcus faecalis APV 00623 after 16 to 24 hrs by broth microdilution method; type: functional
[5] = Selectivity ratio, ratio of IC50 for human HEK293 cells to MIC for Escherichia coli ATCC 25922; type: toxicity; conditions: read-out: Selectivity Index
hERG (KCNH2) = hERG (KCNH2) (Homo sapiens, UniProt Q12809); test: Inhibition of human ERG expressed in CHO cells at 10 uM after 5 mins by automated whole-cell patch clamp relative to control; type: cell-based; conditions: CHO cells that express human ERG
Sequence of hERG (KCNH2) (Q12809 whole entry): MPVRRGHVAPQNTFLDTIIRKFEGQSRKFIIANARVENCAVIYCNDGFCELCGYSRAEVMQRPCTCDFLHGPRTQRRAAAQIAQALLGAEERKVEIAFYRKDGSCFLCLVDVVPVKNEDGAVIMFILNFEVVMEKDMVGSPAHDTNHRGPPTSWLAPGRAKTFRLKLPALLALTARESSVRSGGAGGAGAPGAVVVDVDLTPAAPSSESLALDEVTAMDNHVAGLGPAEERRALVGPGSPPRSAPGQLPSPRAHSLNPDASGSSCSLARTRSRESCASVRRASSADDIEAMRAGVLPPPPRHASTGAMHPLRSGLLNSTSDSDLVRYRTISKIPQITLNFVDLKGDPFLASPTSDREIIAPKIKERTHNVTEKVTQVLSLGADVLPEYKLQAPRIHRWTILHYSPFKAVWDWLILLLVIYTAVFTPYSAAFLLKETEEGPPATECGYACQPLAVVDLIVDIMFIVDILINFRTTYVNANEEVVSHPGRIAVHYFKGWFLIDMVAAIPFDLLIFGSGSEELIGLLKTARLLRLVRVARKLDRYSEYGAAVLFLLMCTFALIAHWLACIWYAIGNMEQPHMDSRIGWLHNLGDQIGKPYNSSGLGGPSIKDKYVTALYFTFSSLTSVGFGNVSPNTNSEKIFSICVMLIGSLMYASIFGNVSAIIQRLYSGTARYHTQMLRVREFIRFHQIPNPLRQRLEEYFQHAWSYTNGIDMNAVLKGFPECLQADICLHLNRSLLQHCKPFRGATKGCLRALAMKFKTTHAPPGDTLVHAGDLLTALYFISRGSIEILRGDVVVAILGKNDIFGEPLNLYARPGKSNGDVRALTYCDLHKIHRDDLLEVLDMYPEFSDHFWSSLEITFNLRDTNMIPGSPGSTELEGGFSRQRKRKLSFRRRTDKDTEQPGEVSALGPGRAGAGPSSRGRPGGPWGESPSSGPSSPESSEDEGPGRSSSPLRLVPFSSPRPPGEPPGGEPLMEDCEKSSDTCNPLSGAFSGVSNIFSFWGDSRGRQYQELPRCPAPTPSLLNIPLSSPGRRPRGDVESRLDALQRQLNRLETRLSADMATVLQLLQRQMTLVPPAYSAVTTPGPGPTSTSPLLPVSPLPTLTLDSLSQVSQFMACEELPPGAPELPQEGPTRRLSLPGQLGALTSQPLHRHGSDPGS

Escherichia coli [6] = test: Antibacterial activity against Escherichia coli ATCC 25922 in presence of 50% human serum after 16 to 24 hrs by broth microdilution method; type: functional
Haemophilus influenzae [7] = test: Antibacterial activity against quinolone-sensitive Haemophilus influenzae H128 after 16 to 24 hrs by broth microdilution method; type: functional
Klebsiella pneumoniae = test: Antibacterial activity against quinolone-sensitive Klebsiella pneumoniae ATCC 700603 after 16 to 24 hrs by broth microdilution method; type: functional
Staphylococcus aureus [8] = test: Selectivity ratio of MIC for Staphylococcus aureus ATCC 29213 in presence of 50% human serum to MIC for Staphylococcus aureus ATCC 29213; type: functional
DNA gyrase subunit A [9] = molecular target: DNA gyrase subunit A (Staphylococcus aureus, UniProt P20831); test: Inhibition of Staphylococcus aureus ATCC 29213 DNA gyrase A assessed as reduction in enzyme-mediated supercoiling of relaxed pBR322 DNA by ethidium bromide staining based gel electrophoresis method
Sequence of DNA gyrase subunit A (Staphylococcus aureus, UniProt P20831) (P20831 whole entry): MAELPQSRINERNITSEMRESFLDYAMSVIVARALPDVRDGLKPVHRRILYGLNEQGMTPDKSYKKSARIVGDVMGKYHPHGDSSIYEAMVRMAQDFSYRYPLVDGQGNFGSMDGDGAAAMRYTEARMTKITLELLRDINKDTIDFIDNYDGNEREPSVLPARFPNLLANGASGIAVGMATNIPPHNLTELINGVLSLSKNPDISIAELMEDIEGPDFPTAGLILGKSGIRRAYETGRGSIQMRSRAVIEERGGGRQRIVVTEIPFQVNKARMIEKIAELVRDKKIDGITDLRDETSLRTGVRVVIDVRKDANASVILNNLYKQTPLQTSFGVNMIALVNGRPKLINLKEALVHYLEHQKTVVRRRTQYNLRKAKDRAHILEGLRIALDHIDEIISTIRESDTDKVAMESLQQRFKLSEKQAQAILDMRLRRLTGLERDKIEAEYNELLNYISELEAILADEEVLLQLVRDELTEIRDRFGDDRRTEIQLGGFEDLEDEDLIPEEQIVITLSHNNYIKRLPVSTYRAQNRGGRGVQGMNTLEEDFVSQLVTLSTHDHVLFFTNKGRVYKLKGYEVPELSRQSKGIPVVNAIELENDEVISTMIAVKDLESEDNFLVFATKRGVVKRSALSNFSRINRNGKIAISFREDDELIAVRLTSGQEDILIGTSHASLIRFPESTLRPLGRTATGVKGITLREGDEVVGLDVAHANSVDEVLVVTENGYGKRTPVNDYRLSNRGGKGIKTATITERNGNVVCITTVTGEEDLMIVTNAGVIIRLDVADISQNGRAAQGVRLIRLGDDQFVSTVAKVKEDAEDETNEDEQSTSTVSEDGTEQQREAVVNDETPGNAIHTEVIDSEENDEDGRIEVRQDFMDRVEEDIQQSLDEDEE

Enterococcus faecium [10] = test: Antibacterial activity against Enterococcus faecium APV 00627 after 16 to 24 hrs by broth microdilution method; type: functional
Staphylococcus aureus [11] = test: Antibacterial activity against Staphylococcus aureus BAA-1720 after 16 to 24 hrs by broth microdilution method; type: functional
Enterococcus faecium [12] = test: Antibacterial activity against vancomycin and teicoplanin-resistant Enterococcus faecium APV 00424 after 16 to 24 hrs by broth microdilution method; type: functional
Escherichia coli [13] = test: Antibacterial activity against Escherichia coli ATCC 25922 after 16 to 24 hrs by broth microdilution method; type: functional
Enterococcus faecalis [14] = test: Antibacterial activity against Enterococcus faecalis ATCC 29212 after 16 to 24 hrs by broth microdilution method; type: functional
Neisseria gonorrhoeae = test: Antibacterial activity against Neisseria gonorrhoeae ATCC 19424 after 16 to 24 hrs by broth microdilution method; type: functional
[15] = molecular target: DNA topoisomerase 4 subunit A (Staphylococcus aureus, UniProt P0C1U9); test: Inhibition of Staphylococcus aureus ATCC 29213 DNA topoisomerase 4 subunit ParC assessed as reduction in decatenation of kinetoplast DNA incubated for 30 mins by ethidium bromide staining based gel electrophoresis method
Sequence of DNA topoisomerase 4 subunit A (Staphylococcus aureus, UniProt P0C1U9) (P0C1U9 whole entry): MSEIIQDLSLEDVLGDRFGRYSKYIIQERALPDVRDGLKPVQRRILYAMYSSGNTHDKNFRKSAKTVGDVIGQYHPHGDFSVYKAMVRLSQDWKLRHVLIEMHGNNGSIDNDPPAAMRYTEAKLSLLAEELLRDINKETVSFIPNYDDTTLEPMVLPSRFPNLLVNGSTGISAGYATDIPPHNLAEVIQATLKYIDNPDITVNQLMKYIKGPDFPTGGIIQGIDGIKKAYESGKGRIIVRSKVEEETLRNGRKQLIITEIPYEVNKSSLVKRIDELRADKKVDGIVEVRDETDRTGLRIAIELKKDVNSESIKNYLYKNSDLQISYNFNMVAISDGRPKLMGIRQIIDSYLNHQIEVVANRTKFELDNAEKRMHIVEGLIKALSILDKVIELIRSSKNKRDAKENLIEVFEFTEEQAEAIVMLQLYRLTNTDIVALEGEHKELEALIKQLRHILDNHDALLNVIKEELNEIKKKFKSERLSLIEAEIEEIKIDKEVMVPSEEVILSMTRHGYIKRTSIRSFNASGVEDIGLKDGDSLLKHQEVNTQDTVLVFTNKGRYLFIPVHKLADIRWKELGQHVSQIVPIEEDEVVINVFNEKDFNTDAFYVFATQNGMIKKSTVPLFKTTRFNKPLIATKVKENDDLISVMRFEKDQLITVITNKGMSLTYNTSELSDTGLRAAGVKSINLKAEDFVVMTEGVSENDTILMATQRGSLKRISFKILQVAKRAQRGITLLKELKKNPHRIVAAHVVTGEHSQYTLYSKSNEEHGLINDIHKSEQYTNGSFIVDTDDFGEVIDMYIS

[16] = Selectivity ratio, ratio of IC50 for human HepG2 cells to MIC for Escherichia coli ATCC 25922; type: toxicity; conditions: read-out: Selectivity Index
Enterococcus faecium [17] = test: Antibacterial activity against vancomycin resistant and teicoplanin sensitive Enterococcus faecium APV 00420 after 16 to 24 hrs by broth microdilution method; type: functional
Escherichia coli [18] = test: Selectivity ratio of MIC for Escherichia coli ATCC 25922 in presence of 50% human serum to MIC for Escherichia coli ATCC 25922; type: functional
Enterococcus faecalis [19] = test: Antibacterial activity against vancomycin-sensitive Enterococcus faecalis APV 00406 after 16 to 24 hrs by broth microdilution method; type: functional
Enterococcus faecium [20] = test: Antibacterial activity against vancomycin and teicoplanin-resistant Enterococcus faecium APV 00422 after 16 to 24 hrs by broth microdilution method; type: functional
Staphylococcus aureus [21] = test: Antibacterial activity against Staphylococcus aureus ATCC 29213 in presence of 50% human serum after 16 to 24 hrs by broth microdilution method; type: functional
Staphylococcus aureus [22] = test: Selectivity ratio of MIC for Staphylococcus aureus BAA-1720 in presence of 50% human serum to MIC for Staphylococcus aureus BAA-1720; type: functional
Enterococcus faecalis [23] = test: Antibacterial activity against vancomycin-sensitive Enterococcus faecalis APV 00404 after 16 to 24 hrs by broth microdilution method; type: functional
Enterococcus faecium [24] = test: Antibacterial activity against Enterococcus faecium APV 00626 after 16 to 24 hrs by broth microdilution method; type: functional
Haemophilus influenzae [25] = test: Antibacterial activity against quinolone-sensitive Haemophilus influenzae ATCC 49766 after 16 to 24 hrs by broth microdilution method; type: functional
Enterococcus faecium [26] = test: Antibacterial activity against vancomycin resistant and teicoplanin sensitive Enterococcus faecium APV 00553 after 16 to 24 hrs by broth microdilution method; type: functional
Pseudomonas aeruginosa = test: Antibacterial activity against Pseudomonas aeruginosa ATCC 27853 after 16 to 24 hrs by CLSI method; type: functional
HEK293 = test: Cytotoxicity against human HEK293 cells after 48 hrs by Alamar blue staining-based fluorometric analysis; type: cell-based; conditions: HEK293, 48 h
Staphylococcus aureus [27] = test: Antibacterial activity against Staphylococcus aureus BAA-1720 in presence of 50% human serum after 16 to 24 hrs by broth microdilution method; type: functional
DNA gyrase subunit A [28] = molecular target: DNA gyrase subunit A (Escherichia coli K-12, UniProt P0AES4); test: Inhibition of Escherichia coli ATCC 25922 DNA gyrase A assessed as reduction in enzyme-mediated supercoiling of relaxed pBR322 DNA by ethidium bromide staining based gel electrophoresis method
Sequence of DNA gyrase subunit A (Escherichia coli K-12, UniProt P0AES4) (P0AES4 whole entry): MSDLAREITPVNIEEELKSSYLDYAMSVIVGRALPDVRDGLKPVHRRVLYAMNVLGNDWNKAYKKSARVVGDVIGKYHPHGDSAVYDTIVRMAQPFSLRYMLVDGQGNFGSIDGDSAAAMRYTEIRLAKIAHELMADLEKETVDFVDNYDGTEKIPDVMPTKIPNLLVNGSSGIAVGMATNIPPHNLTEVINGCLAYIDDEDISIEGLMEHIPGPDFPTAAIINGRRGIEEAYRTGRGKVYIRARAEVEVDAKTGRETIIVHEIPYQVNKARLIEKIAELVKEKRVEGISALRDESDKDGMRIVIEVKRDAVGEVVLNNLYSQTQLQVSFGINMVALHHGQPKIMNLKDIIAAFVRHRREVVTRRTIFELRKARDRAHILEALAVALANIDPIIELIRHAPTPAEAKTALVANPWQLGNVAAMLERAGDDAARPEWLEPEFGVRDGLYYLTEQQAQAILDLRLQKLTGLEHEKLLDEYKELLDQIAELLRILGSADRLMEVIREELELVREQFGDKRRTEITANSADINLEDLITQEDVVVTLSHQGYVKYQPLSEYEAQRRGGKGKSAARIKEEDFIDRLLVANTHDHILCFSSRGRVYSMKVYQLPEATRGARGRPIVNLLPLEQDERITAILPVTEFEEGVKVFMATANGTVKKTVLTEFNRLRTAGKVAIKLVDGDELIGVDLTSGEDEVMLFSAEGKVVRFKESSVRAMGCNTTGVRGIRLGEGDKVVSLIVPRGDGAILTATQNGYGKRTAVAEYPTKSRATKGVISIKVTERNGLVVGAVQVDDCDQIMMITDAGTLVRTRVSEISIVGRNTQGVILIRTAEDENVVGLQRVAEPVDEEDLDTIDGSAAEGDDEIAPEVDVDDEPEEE

Staphylococcus aureus [29] = test: Antibacterial activity against Staphylococcus aureus ATCC 29213 after 16 to 24 hrs by broth microdilution method; type: functional
[30] = molecular target: T1, DNA topoisomerase 4 subunit A (Escherichia coli K-12, UniProt P0AFI2); test: Inhibition of Escherichia coli ATCC 25922 DNA topoisomerase 4 subunit ParC assessed as reduction in decatenation of kinetoplast DNA incubated for 30 mins by ethidium bromide staining based gel electrophoresis method
T1 sequence (P0AFI2 whole entry): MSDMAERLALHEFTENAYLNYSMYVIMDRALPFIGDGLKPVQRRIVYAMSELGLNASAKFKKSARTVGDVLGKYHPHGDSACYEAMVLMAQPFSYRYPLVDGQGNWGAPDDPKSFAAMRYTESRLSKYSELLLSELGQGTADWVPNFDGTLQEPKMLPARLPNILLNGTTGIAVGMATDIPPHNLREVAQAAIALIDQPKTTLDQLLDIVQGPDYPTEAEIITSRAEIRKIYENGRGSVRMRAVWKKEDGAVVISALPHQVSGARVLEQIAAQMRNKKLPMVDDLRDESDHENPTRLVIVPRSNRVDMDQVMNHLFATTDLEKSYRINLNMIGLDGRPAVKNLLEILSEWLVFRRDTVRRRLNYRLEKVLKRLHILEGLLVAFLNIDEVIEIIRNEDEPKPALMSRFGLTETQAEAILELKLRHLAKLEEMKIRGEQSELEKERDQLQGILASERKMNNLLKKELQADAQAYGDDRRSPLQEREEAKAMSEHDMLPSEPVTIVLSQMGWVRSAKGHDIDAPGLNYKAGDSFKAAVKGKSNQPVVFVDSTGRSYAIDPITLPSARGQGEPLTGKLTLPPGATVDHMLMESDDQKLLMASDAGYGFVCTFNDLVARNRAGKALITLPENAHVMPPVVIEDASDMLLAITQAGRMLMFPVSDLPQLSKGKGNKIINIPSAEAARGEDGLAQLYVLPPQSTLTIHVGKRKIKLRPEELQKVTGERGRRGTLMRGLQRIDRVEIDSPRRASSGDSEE

HepG2 = test: Cytotoxicity against human HepG2 cells after 48 hrs by Alamar blue staining-based fluorometric analysis; type: cell-based; conditions: HepG2, 48 h
Enterococcus faecalis [31] = test: Antibacterial activity against vancomycin and teicoplanin-resistant Enterococcus faecalis APV 00408 after 16 to 24 hrs by broth microdilution method; type: functional
HaCaT = test: Cytotoxicity against human HaCaT cells after 24 hrs by resazurin dye based CellTiter-Blue assay; type: cell-based

| SMILES | selectivity ratio [1] | selectivity ratio [2] | MIC (Enterococcus faecalis [3]) | MIC (Enterococcus faecalis [4]) | selectivity ratio [5] | inhibition at 5 min, 10 µM (hERG (KCNH2)) | MIC (Escherichia coli [6]) | MIC (Haemophilus influenzae [7]) | MIC (Klebsiella pneumoniae) | Ratio (Staphylococcus aureus [8]) | IC50 (DNA gyrase subunit A [9]) | MIC (Enterococcus faecium [10]) | MIC (Staphylococcus aureus [11]) | MIC (Enterococcus faecium [12]) | MIC (Escherichia coli [13]) | MIC (Enterococcus faecalis [14]) | MIC (Neisseria gonorrhoeae) | IC50 [15] | selectivity ratio [16] | MIC (Enterococcus faecium [17]) | also measured |
| --- | --- | --- | --- | --- | --- | --- | --- | --- | --- | --- | --- | --- | --- | --- | --- | --- | --- | --- | --- | --- | --- |
| O=c1nc(NCC(O)CN2CCN(c3nccc4ccc(F)cc34)CC2)c2cc(F)ccc2o1 (racemic) | 381 | 262 | 0.12 µg/mL (≈ 0.257 µM) | 0.5 µg/mL (≈ 1.07 µM) | 37 | 67% | > 8 µg/mL | 0.12 µg/mL (≈ 0.257 µM) | 4 µg/mL (≈ 8.56 µM) | >=32 - 267 | 20 nM | 1 µg/mL (≈ 2.14 µM) | 0.25 µg/mL (≈ 0.535 µM) | 0.12 µg/mL (≈ 0.257 µM) | 2.14 µM (≈ 1 µg/mL) | 0.5 µg/mL (≈ 1.07 µM) | ≤ 0.06 µg/mL | 50 nM | 26 | 1 µg/mL (≈ 2.14 µM) | Ratio (Escherichia coli [18]): >=32 - 267; MIC (Enterococcus faecalis [19]): 0.25 µg/mL (≈ 0.535 µM); MIC (Enterococcus faecium [20]): 0.25 µg/mL (≈ 0.535 µM); MIC (Staphylococcus aureus [21]): > 8 µg/mL; Ratio (Staphylococcus aureus [22]): >=32 - 267; MIC (Enterococcus faecalis [23]): 0.25 µg/mL (≈ 0.535 µM); MIC (Enterococcus faecium [24]): 16 µg/mL (≈ 34.2 µM); MIC (Haemophilus influenzae [25]): 0.25 µg/mL (≈ 0.535 µM); MIC (Enterococcus faecium [26]): 0.5 µg/mL (≈ 1.07 µM); MIC (Pseudomonas aeruginosa): 4 µg/mL (≈ 8.56 µM); IC50 (HEK293): 80000 nM; MIC (Staphylococcus aureus [27]): > 8 µg/mL; IC50 (DNA gyrase subunit A [28]): 400 nM; MIC (Staphylococcus aureus [29]): 0.21 µM (≈ 0.0982 µg/mL); IC50 [30]: 100 nM; IC50 (HepG2): 55000 nM; MIC (Enterococcus faecalis [31]): 0.25 µg/mL (≈ 0.535 µM) |
| O=c1nc(NCC(O)CN2CCN(c3nc(F)cc4ccc(F)cc34)CC2)c2cc(F)ccc2o1 (racemic) | > 433 | > 258 | 0.06 µg/mL (≈ 0.124 µM) | 0.12 µg/mL (≈ 0.247 µM) | 51 | 24% | > 8 µg/mL | 0.06 µg/mL (≈ 0.124 µM) | 1 µg/mL (≈ 2.06 µM) | >=32 - 267 | 20 nM | 0.5 µg/mL (≈ 1.03 µM) | 0.03 µg/mL (≈ 0.0618 µM) | 0.06 µg/mL (≈ 0.124 µM) | 1.02 µM (≈ 0.495 µg/mL) | 0.12 µg/mL (≈ 0.247 µM) | ≤ 0.06 µg/mL | 40 nM | 30 | 0.25 µg/mL (≈ 0.515 µM) | IC50 (HaCaT): > 100000 nM; Ratio (Escherichia coli [18]): >=32 - 267; MIC (Enterococcus faecalis [19]): 0.06 µg/mL (≈ 0.124 µM); MIC (Enterococcus faecium [20]): 0.12 µg/mL (≈ 0.247 µM); MIC (Staphylococcus aureus [21]): 4 µg/mL; Ratio (Staphylococcus aureus [22]): >=32 - 267; MIC (Enterococcus faecalis [23]): 0.12 µg/mL (≈ 0.247 µM); MIC (Enterococcus faecium [24]): 32 µg/mL (≈ 65.9 µM); MIC (Haemophilus influenzae [25]): 0.12 µg/mL (≈ 0.247 µM); MIC (Enterococcus faecium [26]): 0.25 µg/mL (≈ 0.515 µM); MIC (Pseudomonas aeruginosa): 2 µg/mL (≈ 4.12 µM); IC50 (HEK293): 52000 nM; MIC (Staphylococcus aureus [27]): 4 µg/mL; IC50 (DNA gyrase subunit A [28]): 100 nM; MIC (Staphylococcus aureus [29]): < 0.12 µM; IC50 [30]: 100 nM; IC50 (HepG2): 31000 nM; MIC (Enterococcus faecalis [31]): 0.06 µg/mL (≈ 0.124 µM) |
